Assay results as given in article PMC7352342, “Inhibition of Patched Drug Efflux Increases Vemurafenib Effectiveness against Resistant Braf^V600E Melanoma” (Cancers, 2020).
Like-named read-outs stand apart in the source and are kept apart here.

Columns and labels:
WM9R cells [1] = experiment: Wound-healing assay, WM9R cells; format: cell-based; settings: 48 h after wounding, sPAH added to vemurafenib
Procedure: Once cells were confluent in 24-well plates, a wound was created using a p200 tip. Two pictures were taken at two different points of each well immediately after wounding, and 48 h after wounding. Images were taken with Leica DM IRB (5×). The width of the wound was measured using ImageJ software and reported as percentage final wound width/initial wound width.

chick embryos = experiment: sPAH toxicity on chick embryos; format: in vivo; settings: 10 days
Procedure: These experiments were performed by the company INOVOTION (La Tronche, France). […] At this time (E9), an access point to the chorioallantoic membrane (CAM) was made by drilling a small hole through the eggshell into the air sac and a 1 cm^2 window was cut in the eggshell above the CAM. Twenty-one eggs were used for each condition. […] MeWo cells cultivated in DMEM medium with 10% FBS (and 1% penicillin/streptomycin) were detached with trypsin, washed with complete medium, labeled, and suspended in PBS. An inoculum of 3 × 10^6 cells was added onto the CAM of each egg (E9). Eggs were then randomized in 4 groups. The chick embryos were then treated every two days (E11, E13, E15, E17) for 10 days in total, by adding 100 µL of vehicle (1% DMSO in PBS) as a negative control or 100 µL of sPAH at 3 different doses onto the CAM. The number of dead embryos evaluates the toxicity after 10 days of the treatment, as does the observation of 22 abnormality checkpoints in surviving embryos.

MeWo cells = experiment: Cytotoxicity assay (neutral red), MeWo cells; format: cell-based, human
Procedure: (§1) Human melanoma cell lines A375 and MeWo were purchased from ATCC, and cultured in DMEM medium supplemented with 10% fetal bovine serum and penicillin/streptomycin (Invitrogen) at 37 °C in a 5% CO2/95% water-saturated air atmosphere. Melanoma cell lines SKMEL 28, SKMEL V3, WM9S, and WM9R were provided by Robert Ballotti (C3M, Nice, France). MeWo-dxrR cells were obtained by adding increasing concentrations of doxorubicin, up to 0.2 µM, in the culture medium over 6 months. These cells were grown in medium supplemented with 0.2 µM dxr. WM9R cells were obtained by adding increasing concentrations of vemurafenib, up to 5 µM, in the culture medium over 6 months. These cells were grown in medium supplemented with 5 µM vemurafenib. HEK cells were grown in 75 mm tissue culture dishes (Falcon, Franklin Lakes, NJ, USA) in Dulbecco’s modified Eagle’s medium (Gibco, Life Technologies, Saint Aubin, France) supplemented with 10% fetal calf serum (Hyclone, Thermo Fisher Scientific GMBH, Ulm, Germany) and 1% penicillin/streptomycin (Gibco, Life Technologies, Saint Aubin, France) in a humidified incubator at 37 °C (5% CO2).
(§2) Cells were seeded in 96-well plates in triplicate and grown in medium to achieve 70 to 80% confluence. Medium was then removed and replaced with 100 µL/well of complete medium containing PAH or DMSO as a control. After 2 h, 100 µL of complete medium containing serial dilutions of dxr, cisplatin or vemurafenib were added. Plates were incubated at 37 °C and 5% CO2. After 24 or 48 h, cells were incubated for 3 h at 37 °C with 100 µL/well neutral red (NR) solution (50 µg/mL in medium) following the manufacturer’s protocol. Measurements were made in microplate readers (Multiskan Go Microplate Spectrophotometer from Thermo Scientific).

[2] = Cytotoxicity assay (neutral red), MeWo cells; format: cell-based, human; settings: human, MeWo melanoma cells, MeWo; 24 or 48 h; read-out: sPAH-IC50 (cytotoxicity of sPAH alone)
Procedure: as §1, §2

[3] = Cytotoxicity assay (neutral red), WM9R cells; format: cell-based; settings: human, WM9R melanoma cells (vemurafenib-resistant); read-out: sPAH-IC50 (cytotoxicity of sPAH alone)
Procedure: as §1
(§3) Cells were seeded in 96-well plates in triplicate and grown in medium to achieve 70 to 80% confluence. […] Measurements were made in microplate readers (Multiskan Go Microplate Spectrophotometer from Thermo Scientific).

WM9R cells [4] = experiment: Cytotoxicity assay (neutral red), WM9R cells; format: cell-based; settings: WM9R; sPAH 20 µM; 24 h
Procedure: as §1, §3

WM9S cells = experiment: Cytotoxicity assay (neutral red), WM9S cells; format: cell-based; settings: WM9S; 24 h; sPAH between 10 and 20 µM
Procedure: as §1, §3

[5] = Cytotoxicity assay (neutral red), WM9S cells; format: cell-based; settings: human, WM9S melanoma cells; read-out: sPAH-IC50 (cytotoxicity of sPAH alone)
Procedure: as §1, §3

COc1cc(C)c(CC/C(C)=C/Cc2cc(O)ccc2O)c(C)c1C [sPAH, Panicein A hydroquinone]
effect on vemurafenib efficacy against cell migration (WM9R cells [1]): the same effect was observed
abnormalities in surviving embryos (22 checkpoints) (chick embryos; 100 µM to 1 mM): no abnormalities were observed
acute toxicity (chick embryos; up to the highest dose of 1 mM): No acute toxicity was observed
IC50 (MeWo cells; MeWo cells, 2 µM Dxr present, listed as Synthetic PAH, read-out: IC50 of PAH at 2 µM Dxr): 8.1 ± 1.3 µM
IC50 (MeWo cells; MeWo, 24 or 48 h, read-out: sPAH-IC50 (cytotoxicity of sPAH alone)): ~40 µM
IC50 of cisplatin in the presence of sPAH (MeWo cells; MeWo, sPAH 20 µM vs DMSO (Figure S2)): significantly decreased
IC50 [2]: 36 ± 2.3 µM
IC50 [3]: 41 ± 6.2 µM
change of the IC50 of vemurafenib in the presence of sPAH (WM9R cells [4]): decrease by a factor of ten
sensitivity of cells to vemurafenib in the presence of sPAH (WM9S cells): significantly increased
IC50 [5]: 28.6 ± 5.1 µM
